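Grown in 96-well plates, cells were treated for 48 hours with each compound at five concentrations. Insufficient inhibition: endpoint recorded as highest concentration tested. Abbreviation: GI50, concentration required for 50% inhibition of growth. TGI marks complete inhibition of growth.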

Holding throughout (experiment): NCI anticancer screen, dose series, 48 h
Assay [1] has as its system CAKI-1 renal.
Assay [2] has as its system HCT-116 colon.
For assay [3], the system named is NCI-H23 lung.
The test system of assay [4] is TK-10 renal.
In assay [5] the test system is UO-31 renal.
The subject of assay [6] is LOX IMVI melanoma.
Assay [7] concerns SK-MEL-5 melanoma.
The subject of assay [8] is SNB-75 CNS.
For assay [9], the system named is UACC-257 melanoma.
Assay [10] relates to T-47D breast.

On to `COc1ccc(C2c3cc4c(c(OC)c3CC3OCC(=O)C32)OCO4)cc1OC` (centres undefined), for which the GI50 in assay [1], in assay [2], in assay [3] and in assay [5] was < 0.01 µM throughout. Besides, the TGI in assay [1] is 11.3 µM; in assay [4], > 100 µM; in assay [5], 48.4 µM.

With `CC(C)(C)C1CCP(=O)(c2ccccc2)CC1` (centres undefined), the TGI in assay [2], in assay [6], in [3], in assay [7], in assay [8] and in [4] was > 100 µM in each case. In addition, the TGI in assay [9] and in assay [5] was > 100 µM throughout.

As to `COc1cc2c(cc1OCc1ccccc1)N=C[C@@H]1C[C@@H](F)CN1C2=O`, the GI50 in assay [1] is 6.69 µM; in assay [3] it was 0.195 µM; in assay [7], 0.156 µM; in [8], 0.894 µM; in [10] it was 0.577 µM; in [4] it was 1.49 µM. Further, the GI50 in [9] was 0.569 µM. Also, the TGI in assay [1] is 26.1 µM; in [3], 0.572 µM; in assay [7] it was 0.356 µM; in assay [8] it was > 100 µM; in assay [10], 18.7 µM; in [4] it was 4.52 µM. In addition, the results for the TGI in [9] and in [5] were 3 µM and 0.483 µM, respectively.

On to `Cc1ccc(C)c(NC(=O)C(=O)CC(=O)c2cccc3ccccc23)c1`, for which the TGI in [1], in assay [2], in assay [6], in assay [3], in assay [7] and in assay [8] was > 100 µM in each case. Moreover, the TGI in assay [4], in assay [9] and in assay [5] was > 100 µM throughout.

As to `C=C(CS(=O)(=O)c1ccccc1)C(=O)OCC`, the TGI in assay [1] turned out to be 33.9 µM; in assay [2] it was 29.9 µM; in assay [6], 24.2 µM; in assay [3] it was 37.2 µM; in assay [8], 32 µM; in [4] it was 31.8 µM. The TGI was 25.9 µM in assay [9] and 35.4 µM in assay [5].

`CN(C(=O)C12C3C4C1C1C2C3C41C(=O)N(C)C(C)(C)C)C(C)(C)C` (centres undefined): the TGI in assay [1], in [2], in assay [7], in assay [8] and in [5] was > 50 µM each time.

Take `NC(=O)c1ccccc1NC(=O)C(=O)Nc1n[nH]c(N)n1`: the TGI in assay [1], in assay [2], in assay [6], in assay [3], in assay [7] and in assay [8] was > 100 µM in each case. The TGI in assay [4], in assay [9] and in assay [5] was > 100 µM throughout.

On to `Cc1ccc(S(=O)(=O)Nc2cccc(C)c2C)cc1`, for which the TGI in [2] was > 100 µM; in assay [6] it was > 100 µM; in [3], > 100 µM; in assay [7], > 100 µM; in assay [8], 86.8 µM; in assay [4] it was > 100 µM. Also, the TGI in assay [9] and in [5] was > 100 µM in each case.

On to `O=S1c2ccccc2N=C(c2ccc3ccccc3c2)CC1c1ccccc1F` (centres undefined), for which the TGI was > 100 µM in assay [1]; > 100 µM in [6]; > 100 µM in [3]; > 100 µM in assay [7]; 80.8 µM in [8]; > 100 µM in assay [4]. Also, the TGI in [9] and in assay [5] was > 100 µM throughout.

Consider `COc1cc(-c2ccccc2)c(OC)cc1CCl`, for which the TGI in assay [1], in assay [2], in assay [3], in assay [7], in assay [8] and in assay [4] was > 100 µM in each case. The TGI in assay [9] and in assay [5] was > 100 µM throughout.

In the case of `Cc1nn2c(=O)n(-c3cccc(-n4nnc5c(-c6ccccc6)c(C)nn5c4=O)c3C)nnc2c1-c1ccccc1`, the TGI in assay [1] is > 100 µM; in [2] it was 30.4 µM; in assay [6], > 100 µM; in assay [3], > 100 µM; in assay [7], 33.8 µM; in [8], > 100 µM. In addition, the TGI in assay [4] was > 100 µM; in [9], 70.2 µM; in assay [5], > 100 µM.

With `Cc1ccn2c(-c3csc(Nc4cccc(O)c4)n3)c(C)nc2c1`, the GI50 is 1.21 µM in [1]; 0.397 µM in assay [2]; 1.01 µM in assay [3]; 0.478 µM in assay [7]; 0.225 µM in assay [8]; 0.878 µM in assay [10]. Besides, the GI50 in assay [4] was 4.88 µM; in assay [9], 3.48 µM; in assay [5], 0.977 µM. The TGI was determined as 21.2 µM in assay [1]; 15.1 µM in assay [2]; 19.7 µM in assay [3]; 11.1 µM in assay [7]; 1.65 µM in assay [8]; 10.8 µM in [10]. Further, the values for the TGI in [4], in assay [9] and in assay [5] were 24.9 µM, 19.6 µM and 16.6 µM, respectively.

`COC(=O)[C@H]1CC(=O)C=C2CCCC21` (some centres undefined): the TGI in assay [1], in [2], in assay [6], in [3], in assay [7] and in assay [8] was > 100 µM each time. Also, the TGI in assay [4], in assay [9] and in assay [5] was > 100 µM throughout.

`CN=c1ss/c(=N\C(=S)N(C)C)n1C1CCCCC1`: the TGI in assay [1] is > 31.6 µM; in assay [2], > 10 µM; in [6], > 31.6 µM; in assay [3], > 31.6 µM; in assay [7], > 31.6 µM; in [8], > 10 µM. The TGI in assay [4], in [9] and in assay [5] was > 31.6 µM in each case.

Take `CC1=C(C(=O)Nc2cccc(C(F)(F)F)c2)C(c2ccccc2F)C(C(=O)Nc2cccc(C(F)(F)F)c2)=C(C)N1`: the TGI in [1] came out at 25 µM; in assay [2], 13.5 µM; in assay [6], 18.3 µM; in assay [3], 17 µM; in assay [7], 18 µM; in [8], 79.6 µM. The TGI in assay [4] worked out at 25.7 µM; in assay [9], 22.1 µM; in assay [5] it was 17.3 µM.

In the case of `O=c1c2cc(Br)ccc2[nH]c(=S)n1-c1ccccc1`, the TGI in assay [1], in assay [2], in assay [6], in [3], in assay [7] and in [8] was > 100 µM in each case. Further, the TGI in assay [4], in assay [9] and in assay [5] was > 100 µM in each case.

Regarding `CC(C)(C)C1CCC(CI)(N=[N+]=[N-])CC1` (centres undefined), the TGI in assay [1], in assay [2], in assay [3], in [7], in assay [8] and in assay [4] was > 100 µM in each case. Moreover, the TGI in assay [9] and in assay [5] was > 100 µM in each case.

Consider `Cc1cc(N2CCN(C)CC2)nc(N(CCNc2ccnc3cc(Cl)ccc23)Cc2ccco2)n1`, for which the GI50 in [2] is 2.6 µM; in assay [6], 1.77 µM; in [3], 6.26 µM; in assay [7] it was 1.77 µM; in [8], 4.1 µM; in assay [10] it was 2.07 µM. Moreover, the GI50 was 2.8 µM in [4], 2.07 µM in assay [9] and 2.66 µM in assay [5]. In addition, the TGI was 10.4 µM in assay [2]; 3.56 µM in assay [6]; 21.4 µM in assay [3]; 3.24 µM in [7]; 19.6 µM in assay [8]; 6.41 µM in assay [10]. In addition, the figures for the TGI in assay [4], in [9] and in [5] were 11.4 µM, 4.25 µM and 11.9 µM, respectively.

Turning to `O=c1c(-c2ccc3c(c2)OCO3)coc2c(CO)c(O)ccc12`, the GI50 in assay [2] is 2 µM; in [6], 1.28 µM; in assay [3], 4.87 µM; in assay [7] it was 1.91 µM; in assay [8], 2.39 µM; in assay [10], 2.48 µM. Besides, the GI50 in assay [4] was 2.28 µM; in assay [9], 2.59 µM; in [5] it was 2.89 µM. Also, the TGI worked out at 4.94 µM in assay [2]; 3.41 µM in assay [6]; 24.5 µM in assay [3]; 3.98 µM in [7]; 7.43 µM in assay [8]; 14.9 µM in [10]. Besides, the TGI is 6.78 µM in assay [4], 7.46 µM in assay [9] and 12 µM in assay [5].

On to `CC1(C)C(=O)CCC(=O)C(C)(C)C2=CC=C(O2)C(C)(C)C(=O)CCC(=O)C(C)(C)C2=CC=C1O2`, for which the TGI in assay [1], in assay [2], in assay [6], in [3], in assay [4] and in assay [9] was > 100 µM each time.

As for `CC(N)CN.CC(N)CN.[Cl-].[O]=[Os+2]=[O]` (centres undefined), the GI50 was > 100 µM in assay [1]; 36.5 µM in [2]; 27 µM in assay [6]; > 100 µM in [3]; 97.2 µM in [7]; > 100 µM in [8]. For the same compound, the GI50 is > 100 µM in [4] and 93.3 µM in assay [5]. For the same compound, the TGI in assay [1], in [2], in assay [6], in assay [3], in assay [7] and in assay [8] was > 100 µM each time. Further, the TGI in assay [4] and in assay [5] was > 100 µM in each case.

As for `Cc1ccc2c(n1)C(=O)C(Cl)=C(Nc1ccc(N3CCN(C)CC3)cc1)C2=O`, the GI50 in assay [1] was 1.68 µM; in assay [2], 1.67 µM; in [6], 1.78 µM; in assay [3] it was 1.79 µM; in [7], 1.72 µM; in assay [8], 2.11 µM. The GI50 was 1.95 µM in assay [4], 1.7 µM in [9] and 1.63 µM in assay [5]. The TGI in [1] came to 3.08 µM; in [2] it was 3.19 µM; in [6], 3.22 µM; in assay [3], 3.75 µM; in assay [7] it was 3.1 µM; in assay [8], 8.53 µM. The TGI in assay [4] came out at 3.42 µM; in assay [9] it was 3.11 µM; in [5] it was 2.98 µM.

Regarding `COc1ccc(/C=c2\sc3nnc(CCC(=O)Nc4cccc(C(F)(F)F)c4)n3c2=O)cc1`, the TGI in [1], in [2], in [6], in [3], in assay [7] and in assay [8] was > 100 µM each time. Further, the TGI in assay [4], in assay [9] and in assay [5] was > 100 µM in each case.

`COC(=O)CSc1n[nH]c(-c2ccccc2)n1`: the TGI in assay [1], in [2], in assay [3], in assay [7], in assay [8] and in assay [4] was > 100 µM throughout. Further, the TGI in [9] and in assay [5] was > 100 µM in each case.

For `CN(C)CCCNC(=O)c1cccc2nc3ccccc3nc12`, the TGI in assay [1] is > 78.2 µM; in [2], 34.7 µM; in assay [6], 39.8 µM; in assay [3], 33.5 µM; in [7], > 100 µM; in assay [8], > 100 µM. In addition, the TGI in [4] was > 100 µM; in assay [9], 19.5 µM; in [5] it was > 71 µM.

Take `C=C1C(=O)O[C@H]2[C@H]1CC/C(COC(=O)c1cccc3ccccc13)=C\CC[C@@]1(C)O[C@@H]21`: the GI50 in [2] is 1.23 µM; in assay [6] it was 1.35 µM; in [3], 1.78 µM; in assay [7], 1.62 µM; in [8] it was 3.04 µM; in assay [4] it was 1.85 µM. Further, the GI50 in assay [9] is 1.46 µM; in assay [5] it was 1.44 µM. Besides, the TGI in [2] amounted to 2.53 µM; in assay [6] it was 2.8 µM; in assay [3] it was 3.7 µM; in assay [7] it was 2.98 µM; in assay [8], 13.3 µM; in assay [4], 3.42 µM. In addition, the TGI in assay [9] came to 2.83 µM; in assay [5] it was 2.76 µM.

(Values after PubChem BioAssay (NCI).)
